In test [1] the test system is APEC O78. It counts as cell-based, E. coli. Here is the method:
Anti-APEC activity determination: The anti-APEC activity of peptides was determined in LB broth following CLSI guidelines. Briefly, overnight grown APEC O78 was adjusted to 5×10^5 CFU/mL concentration in fresh LB media. One-hundred microliters of APEC suspension was aliquoted into the wells of the 96-well plate. Peptides were added to the wells at 6 mM and 12 mM concentrations and incubated at 37° C. in TECAN Sunrise™ absorbance microplate reader with kinetic absorbance measurement set at every 30 mins for 12 h. Sterile media and DMSO (solvent) were used as controls. The growth inhibitory activity of the peptides against APEC was calculated using the formula: (OD600 DMSO treated well−OD600 peptide treated well)/OD600 DMSO treated well×100%.
The minimum inhibitory concentration (MIC) was determined for selected peptides (P1, P2, P3, and P4) using similar assay as above. Peptides were added to the wells of the 96-well plate at 6 mM, 9 mM, 12 mM, 15 mM, and 18 mM concentrations. The peptide concentration at which there is no visible APEC growth (no OD increase) was determined as MIC. Two independent experiments were conducted.
Arginine and lysine substituted peptide analogues: The non-essential amino acid residues identified in each peptide were substituted with arginine/lysine to test whether these substitutions enhance the anti-APEC activity of peptides. The MICs of arginine and lysine substituted peptide analogues ([…] (SEQ ID NO:37), […] (SEQ ID NO:38), […] (SEQ ID NO:39), KDENK (SEQ ID NO:41), PDEKK (SEQ ID NO:42), KDEKK (SEQ ID NO:43), KHTAPK (SEQ ID NO:45), VKTAPK (SEQ ID NO:46), VHTKPK (SEQ ID NO:47), and KKTKPK (SEQ ID NO:48)) were determined as above and compared with original peptides.

For test [2], the system named is Salmonella enterica subsp. enterica serovar Enteritidis (SE). It counts as cell-based. Conditions: subsp. enterica serovar Enteritidis (SE). Here is the method:
MIC was determined by selecting peptide concentration at which there is no increased growth (no increase in OD), given indication of no ST growth. An independent repeat experiment was conducted.
Heat and protease tolerance of peptides: P1, P2, and P4 were heated for 6 minutes at 86° C. or treated with protease proteinase K, 200 μg/mL at 50° C. for 30 minutes. After which, the treated and/or heated peptides at their respective MICs were evaluated in the inhibition assay with Salmonella. The protocol from above was repeated in the Tecan with the same controls.
To analyze the perceived efficacy of arginine and lysine substitutes reported in previous studies, specific amino acid residues in P1 and P2 were replaced with lysine or arginine to test if the alliterations enhanced anti-Salmonella (ST and SE) activity. The MICs of the arginine or lysine substituted peptides ([…] (SEQ ID NO:37), […] (SEQ ID NO:38), […] (SEQ ID NO:39), KDENK (SEQ ID NO:41), PDEKK (SEQ ID NO:42), KDEKK (SEQ ID NO:43), KHTAPK (SEQ ID NO:45)) were determined as described early. Two independent experiments were conducted to ensure accuracy.

In test [3] the test system is ST. The test is described as follows: Minimal bactericidal concentration of PN-3 and PN-5. It counts as cell-based, Salmonella enterica. Here is the method:
FIGS. 30A-30C show the growth pattern of ST with and without peptide at 9-21 mM concentration. […] The plate was incubated in a TECAN Sunrise™ absorbance microplate reader at 37° C., measuring the OD 600 set at every 30 mins for 12 hrs., followed by bacterial enrichment to determine the minimal bactericidal concentration log CFU/mL.

In test [4] the test system is Biofilm-embedded APEC. Briefly: Effect of PN peptides on biofilm embedded APEC. In kind it is cell-based, E. coli. To be noted: untreated 7.71 ± 0.72.
Test [5] concerns APEC O78. Briefly: Resistance after 13 passages at 0.75×MIC. It counts as cell-based, E. coli. Here is the method: FIGS. 18A-18B show the growth of APEC O78 at MIC of the peptides after growing the bacteria for 13 passages with a sublethal concentration (0.75×MIC) of peptides. […] The OD 600 was measured at every 30 mins for 12 hrs.
Test [6] has as its system various probiotic strains. It counts as cell-based. To be noted: at MIC (PN3 12 mM, PN5 15 mM). Here is the method: FIGS. 16A-16B show the effect of the peptide on the growth of various probiotic strains after treating at their minimal inhibitory concentrations of 12 and 15 mM of PN3 and PN5, respectively. […] FIG. 16B the effect of 15 mM of PN5 peptide. The bacteria (5×10^5 CFU/mL) were treated with peptides and grown at 37° C. for 24 hrs in an anaerobic condition except for E. coli Nissel 1917 and E. coli G58-1, which has grown in aerobic conditions for 12 hrs. After incubation, serially dilute the culture and counted the CFU/mL Bacterial inhibition percentage was calculated by comparing with no peptide treated control.

Test [7] has as its system APEC O78. In kind it is cell-based, E. coli. Conditions: 12 h. Here is the method: FIGS. 13A-13C show the growth pattern of APEC O78 with and without peptide at 3-21 mM concentration. […] Various concentrations of peptides were added to the APEC suspension (5×10^5 CFU/mL) in a 96-well plate. The plate was incubated in a TECAN Sunrise™ absorbance microplate reader at 37° C., measuring the OD 600 set at every 30 mins for 12 hrs. After 12 hrs. incubation the bacteria were serially diluted and plated to count CFU/mL and calculated the inhibitory percentage using (Control-treated)/treated*100.
FIGS. 14A-14B show the growth pattern of APEC O78, treated with a combination of peptides at 3-21 mM concentration with respect to no peptide control. […] The two peptides were added together to the APEC suspension (5×10^5 CFU/mL) in a 96-well plate. The plate was incubated at 37° C. in a TECAN Sunrise™ absorbance microplate reader, measuring the OD 600 set at every 30 mins for 12 hrs. After incubation, the bacteria were serially diluted and plated to measure CFU/mL and calculate the inhibitory percentage using (Control-treated)/treated*100.

Test [8] deals with various serovars of Salmonella. The test is described as follows: PN3 and PN5 on various serovars of Salmonella. It counts as cell-based. Conditions: at MBC, 12 hrs. Here is the method: Salmonella serovars (5×10^5 CFU/mL) were treated with peptides and grown at 37° C. for 12 hrs. In addition, bacterial inhibition percentage was calculated by comparing with no peptide control. […] Red: Bactericidal, Green: Non bactericidal.
FIGS. 32A-32B show the growth inhibition percentage of various serovars of Salmonella after treating with minimal inhibitory concentrations of peptides. […] Salmonella serovars (5×10^5 CFU/mL) were treated with peptides and grown at 37° C. for 12 hrs. In addition, bacterial inhibition percentage was calculated by comparing with no peptide control.

The test system of test [9] is Intracellular APEC. Briefly: Effect of PN peptides on intracellular APEC. In kind it is cell-based, E. coli.
Test [10] deals with APEC. The test is described as follows: Kinetic time-inhibition assay of synthesized peptides. In kind it is cell-based, E. coli. Conditions: 12 mM, 12 h. Here is the method: Peptides were added to the APEC suspension in a 96-well plate, and plate was incubated in TECAN Sunrise™ absorbance microplate reader at 37° C. with OD600 measurement set at every 30 min for 12 hr. The sequences in FIG. 7 are […] (SEQ ID NO: 5), […] (SEQ ID NO: 18), […] (SEQ ID NO: 21), […] (SEQ ID NO: 26), and […] (SEQ ID NO: 32).
The five common highly abundant peptides in CFSs of both L. rhamnosus GG and B. lactis Bb12 ([…] (SEQ ID NO:5), […] (SEQ ID NO:18), […] (SEQ ID NO:21), […] (SEQ ID NO:26) and […] (SEQ ID NO:32)) were synthesized (GenScript, NJ, USA) and tested for anti-APEC activity by conducting kinetic time-inhibition assay as described previously. Briefly, peptides dissolved in dimethyl sulfoxide (DMSO) at 200 mM concentrations were added (12 mM; final concentration of 6% DMSO) to APEC suspension (10^5 CFU/mL; LB media) in a 96-well plate. The plate was then incubated in TECAN Sunrise™ absorbance microplate reader (NC, USA) at 37° C. with OD600 measurement set at every 30 mins for 12 h. Untreated APEC (0% DMSO) and APEC treated with 6% DMSO were included as controls. […] Three independent experiments were conducted.

Test [11] deals with multiple APEC serotypes. It counts as cell-based, E. coli. Here is the method: Anti-APEC spectrum determination: Peptides (P1, P2, and P3) were tested against multiple APEC serotypes/strains to determine their spectrum of activity. Peptides were added at their MICs and the growth inhibitory activity of the peptides was determined as described above.

No end group written: not given here.

Broadly, the MIC is the lowest concentration that inhibits growth of the organism. Read a low MIC as a more susceptible organism. As to KHTAPK [KHTAPK], the “MIC” value in [1] is reported as more than 18 mM.
Take NPRRQRRR: in [2], the “MIC against SE” value is listed as more than 18 mM.
Take NPSRRERR: the “MIC” value in test [1] worked out at 15 mM.
Take VHTKPK [VHTKPK]: the “MIC” value in [1] was more than 18 mM.
For PDEKK [PDEKK], the “MIC against SE” value in test [2] was found to be 12 mM. In test [1], the “MIC” value came out at 9 mM.
For VQAAQAGDTKPIEV [PN-3], the Minimal bactericidal concentration in test [3] was found to be 21 mM. Besides, in test [4], the “Biofilm-embedded APEC” value came out at 4.21 ± 0.48 Log CFU/mL. For the same substance, the “Bacterial resistance against the peptides” value in test [5] was “did not cause bacterial resistance”. In test [6], the “Growth of B. longum, B. adolescentis, and B. theoiotamicron” value is “promoted the growth”. Further, the “Growth of BB12, E. coli Nissel 1917 and E. coli G58-1” value in test [6] is recorded as “inhibited the growth”. Moreover, the “Growth of LGG” value in [6] was “unaffected”. In addition, the Minimal inhibitory concentration in test [7] worked out at 12 mM. The “Bactericidal effect on eight Salmonella serotypes” value in test [8] is “kill all the eight serotypes of Salmonella with no viable colony”. For the same substance, the “Intracellular APEC” value in test [9] (0.25 X, untreated 2.98 ± 0.87) is 2.64 ± 0.23 Log CFU/mL; in [9] (0.75 X), 2.59 ± 0.30 Log CFU/mL; in [9] (1 X), 2.50 ± 0.17 Log CFU/mL; in test [9] (1.5 X) it was 0.00 ± 0.00 Log CFU/mL. Moreover, the “Inhibition of APEC growth” value in [10] is “completely inhibitory”.
Consider VKTAPK [VKTAPK], for which the “MIC” value in [1] was more than 18 mM.
In the case of NPRRRERR, in test [1], the “MIC” value is listed as 12 mM.
On to KDENK [KDENK], for which the “MIC” value in test [1] came out at 9 mM.
Substance VTDTSGKAGTTKISNV [PN-5] yielded a Minimal bactericidal concentration in test [3] of 21 mM. For the same substance, in test [4], the “Biofilm-embedded APEC” value is recorded as 4.95 ± 0.07 Log CFU/mL. For the same substance, the “Bacterial resistance against the peptides” value in test [5] is recorded as “did not cause bacterial resistance”. For the same substance, the “Growth of B. longum, B. adolescentis, and B. theoiotamicron” value in test [6] is recorded as “promoted the growth”. In addition, the “Growth of BB12, E. coli Nissel 1917 and E. coli G58-1” value in [6] is given as “inhibited the growth”. For the same substance, the “Growth of LGG” value in test [6] is “slightly affected”. In addition, the Minimal inhibitory concentration in test [7] is listed as 15 mM. In [8], the “Bactericidal effect on eight Salmonella serotypes” value is reported as “killed all serotypes except Saintpaul”. The “Intracellular APEC” value in test [9] (0.25 X, untreated 2.98 ± 0.87) is 2.34 ± 0.11 Log CFU/mL; in [9] (0.75 X), 2.30 ± 0.00 Log CFU/mL; in test [9] (1 X), 0.00 ± 0.00 Log CFU/mL; in [9] (1.5 X), 0.00 ± 0.00 Log CFU/mL. Besides, in test [10], the “Inhibition of APEC growth” value is recorded as “completely inhibitory”.
As to KKTKPK [KKTKPK], the minimal inhibitory concentration (MIC) in [1] is listed as more than 18 mM.
On to FSAVALSAVALSKPGHVNA [PN-1], for which the “Inhibition of APEC growth” value in [10] was “did not affect the APEC growth”.
Take AFDNTDTSLDSTFKSA [PN-4]: in [10], the “Inhibition of APEC growth” value is “completely inhibitory”.
As usually defined, the MIC50 is the lowest concentration that inhibits either 50% of growth or 50% of the strains tested, depending on the study. Higher therefore signals lower susceptibility. In the case of VHTAPK [Peptide P3, VHTAPK], the “Growth inhibition against APEC serotypes” value in test [11] is listed as 39.4-88.4%. In [1], the “MIC” value is 18 mM and the “MIC50” value worked out at 16.2 mM.
NPRRQERR: the “MIC” value in [1] is 12 mM.
As for AESSDTNLVNAKAA [PN-2], the “Inhibition of APEC growth” value in test [10] was “slightly inhibitory”.
On to KDEKK [KDEKK], for which the “MIC” value in test [1] was found to be 12 mM.

The values above are taken from US20240181000A1, “LGG-DERIVED PEPTIDES AND METHODS OF USE THEREOF” (Ohio State Innovation Foundation, priority 2021, published 2024).
